Data as given in BigSolDB 2.1.

CC(C)OC(=O)[C@H](C)N[P@](=O)(Oc1ccccc1)Oc1c(F)c(F)c(F)c(F)c1F
solubility (mole fraction)
Conditions | in acetone | in acetonitrile | in ethanol | in ethyl acetate | in isopropanol | in methanol | in n-butanol | in n-propanol | in toluene | in water
278.15 K | 0.00921 | 0.00297 | 0.0019 | 0.0073 | 0.00118 | 0.0023 | 0.000812 | 0.00144 | 0.00381 | 2.39e-05
283.15 K | 0.0111 | 0.0036 | 0.00234 | 0.00889 | 0.00156 | 0.0028 | 0.0011 | 0.00191 | 0.00469 | 3.23e-05
288.15 K | 0.0132 | 0.00439 | 0.00293 | 0.0108 | 0.00204 | 0.00347 | 0.00152 | 0.00246 | 0.00572 | 4.42e-05
293.15 K | 0.0159 | 0.00538 | 0.00366 | 0.0132 | 0.00265 | 0.00423 | 0.00198 | 0.00311 | 0.00696 | 6.06e-05
298.15 K | 0.019 | 0.00653 | 0.00451 | 0.0157 | 0.00343 | 0.00519 | 0.00267 | 0.0039 | 0.00848 | 7.96e-05
303.15 K | 0.0226 | 0.00787 | 0.00556 | 0.0191 | 0.00431 | 0.00632 | 0.00348 | 0.0049 | 0.0103 | 0.000106
308.15 K | 0.0268 | 0.00941 | 0.00686 | 0.0227 | 0.00545 | 0.00766 | 0.00463 | 0.00608 | 0.0125 | 0.000137
313.15 K | 0.0315 | 0.0113 | 0.00836 | 0.0269 | 0.00692 | 0.00927 | 0.00609 | 0.00748 | 0.0151 | 0.000182
318.15 K | 0.0371 | 0.0133 | 0.0101 | 0.032 | 0.00875 | 0.0111 | 0.00789 | 0.00927 | 0.0181 | 0.000235
